Measured values from PubChem BioAssay AID463229 (Broad Institute, 2010).

Tested on: INS-1E rat beta cells, no cytokines, CellTiter-Glo ATP, 48 h
Test: cytokine-free beta-cell viability effect – INS-1E rat cells, ATP luminescence, cherry pick, counter-screen for beta-cell apoptosis protection project, dose response (AID 463229)

Row | Structure (SMILES) | AC50
1 | O=C1C(Nc2ccccc2)=C/C(=N/S(=O)(=O)c2cccs2)c2ccccc21 | 2.07 µM
2 | COc1ccc(CC(=O)Nc2cccc(-c3nnc(-c4cccc(C)c4)o3)c2)cc1OC | 3.46 µM
3 | CCCCC(=O)NC(c1ccco1)c1cc(Cl)c2cccnc2c1O (stereo not drawn) | 12.4 µM
4 | O=C(NC(NC(=S)Nc1ccccc1)C(Cl)(Cl)Cl)c1cccc(Cl)c1 (stereo not drawn) | 13.9 µM
5 | CSc1ccccc1OCc1cc(C(=O)N2CCc3c(Cl)cccc3C2)no1 | 6.99 µM
6 | O=C(Nc1ccc(Cl)cc1)c1nc[nH]c1C(=O)NCCN(CCNC(=O)c1[nH]cnc1C(=O)Nc1ccc(Cl)cc1)CCNC(=O)c1[nH]cnc1C(=O)Nc1ccc(Cl)cc1 | 8.08 µM
7 | CCOC(=O)/C(=C\c1ccccc1)C(=O)c1cc(C(C)=O)c(Nc2ccccc2)s1 | 6.53 µM
8 | Cn1ncnc2c(=O)n(C)c(=O)nc1-2 | 1.48 µM
9 | COc1cc(C(=O)N/N=C(\c2ccccc2)c2ccccn2)cc(OC)c1OC | 3.3 µM
10 | O=C(OCn1ncc(Cl)c(Cl)c1=O)c1ccc(F)cc1 | 7.02 µM
11 | Cn1nc(C(C)(C)C)cc1C(=O)NCc1cc(F)cc2c1OCOC2 | 5.86 µM
12 | CC1=NOC(=O)/C1=C/c1ccc(-c2ccc(Cl)cc2)o1 | 7 µM
13 | CCN(CC)c1ccc(/C=N/NC(=O)c2c(Cl)cnn2C)c(O)c1 | 1.5 µM
14 | CNc1ccc2oc(C[C@H]3O[C@@]4(CC[C@H]3C)O[C@H]([C@H](C)C(=O)c3ccc[nH]3)[C@H](C)C[C@H]4C)nc2c1C(=O)O | 1.32 µM
15 | Cc1cc(C)nc(SCC(=O)NC2=NN=C(c3ccc(Br)cc3)CS2)n1 | 2.52 µM
16 | CN(Cc1cccnc1)C(=O)c1cc(COc2ccc3ncccc3c2)on1 | 9.3 µM
17 | Cc1nc2cc(-c3ccccc3)sc2c(=O)n1N | 3.6 µM
18 | CC(C)c1cccc(C(C)C)c1OC(=O)[C@H]1OC(C(C)(C)C)=C[C@@H]1c1ccccc1 | 7.8 µM
19 | CCC[C@@H](CN1CCC[C@H]1CN1C(N)=NC[C@@H]1Cc1ccccc1)N1C[C@@H]([C@H](C)CC)N(CCCC2CCCC2)C1=N | 7.72 µM
20 | C=CCn1c(C)c(/C=C/c2cc[n+](C)cc2)c2ccccc21 | 5.99 µM
21 | CN(C)S(=O)(=O)c1cccc(N=C2NN=C(c3ccccc3)CS2)c1 | 4.4 µM
22 | Cc1[nH]n(-c2ccccc2)c(=O)c1/C=N/NC(=O)COc1ccccc1[N+](=O)[O-] | 8.45 µM

Row | Structure (SMILES) | AC50
23 | CCC(CO)Oc1cc(NCc2ccc(C(C)(C)C)cc2)c2ncn(C(C)C)c2c1 (stereo not drawn) | 2.45 µM
24 | CCn1c(Cl)c(C=O)s/c1=N\S(=O)(=O)c1ccccc1 | 6.63 µM
25 | O=c1c2ccccc2nc(N/N=C/c2c(O)ccc3ccccc23)n1O | 3.65 µM
26 | COc1ccc([C@H]2CC(=O)C=C(c3ccnc4ccc(Cl)cc34)C2)cc1 | 6.01 µM
27 | C=CCn1c(SCN2C(=O)c3ccccc3C2=O)nc2ccc(Cl)cc2c1=O | 7.16 µM
28 | Cc1ccc(Cl)cc1NC1=C/C(=N\S(=O)(=O)c2cccs2)c2ccccc2C1=O | 4.61 µM
29 | COc1c(CC=C(C)C)cc(C2CC(=O)c3c(O)cc(O)cc3O2)cc1CC=C(C)C (stereo not drawn) | 4.05 µM
30 | Cc1ccc(NC2=C/C(=N/S(=O)(=O)c3cccs3)c3ccccc3C2=O)cc1 | 2.37 µM
31 | CCCCc1ccc(N/C(N)=N/c2nc(C)cc(C)n2)cc1 | 5.12 µM
32 | Oc1ccc(Br)cc1CNc1cccc2cccnc12 | 12.8 µM
33 | Cc1ccc(C)c(S(=O)(=O)Nc2cc(SCC(=O)O)c(O)c3ccccc23)c1 | 7.19 µM
34 | COc1ccc(C(NC(C)=O)c2cc(Cl)c3cccnc3c2O)cc1 (stereo not drawn) | 7.34 µM
35 | c1ccc(CNc2c(-c3cccc(SC4CCCCC4)c3)nc3ccccn23)cc1 | 2.98 µM
36 | OC(CNCCC1C=Nc2ccccc21)Cn1c2ccc(Cl)cc2c2cc(Cl)ccc21 (stereo not drawn) | 7.93 µM
37 | COc1cccc(/C=N/NC(=O)c2c(C)nc3ccc(Cl)cn23)c1O | 3.81 µM
38 | Cc1c(C(=O)N/N=C/c2c(O)ccc3ccccc23)nnn1-c1nonc1N | 2.18 µM
39 | COc1cccc(/C=N/NC(=O)c2cc3c(OC)ccc(OC)c3[nH]2)c1O | 10.7 µM
40 | C#CC[N+](C)(C)CCCCCCCCCCCC | 6.1 µM
41 | O=Nc1c(O)c2ccccc2c2ccccc12 | 7.61 µM
42 | Cc1ccc(-c2c[n+](Cc3ccc(Cl)c(Cl)c3)c3n2CCC3)cc1 | 4.72 µM
43 | OCCCNc1c2ccccc2nc2ccccc12 | 9.09 µM
44 | Cn1nccc1C(=O)NC1CCCc2c1cnn2-c1ccc(F)cc1F (stereo not drawn) | 2.48 µM

Row | Structure (SMILES) | AC50
45 | O=C(N/N=C/c1ccc(O)cc1O)c1ccc(NC(=O)C2CCCCC2)cc1 | 13 µM
46 | c1nc(NCc2ccc3c(c2)OCO3)c2cc(-c3ccc4c(c3)OCCO4)ccc2n1 | 15.5 µM
47 | C/C(=N\NC(=O)COc1ccccc1-c1ccccc1)c1ccccn1 | 6.13 µM
48 | Cc1nc(Nc2cnc(/C=C/c3cc(C(=O)Nc4cccc(C(F)(F)F)c4)ccc3C)cn2)cc(N2CCNCC2)n1 | 12.3 µM
49 | Cc1ccc(NC(=O)CCC(=O)N/N=C/c2ccc([N+](=O)[O-])o2)cc1C | 19.8 µM
50 | O=C(N/N=C/c1c(O)ccc2ccccc12)c1ccc(Br)o1 | 4.83 µM
51 | O=C1C=C(Nc2ccccc2O)c2ccccc2C1=O | 8.04 µM
52 | O=C(N/N=C(\c1ccccc1)c1cccnc1)c1cccc(F)c1 | 2.56 µM
53 | O=C(Nc1nc(-c2ccccn2)cs1)Nc1ccc(F)cc1F | 10.2 µM
54 | COc1cc2nc(N3CCN(c4cc(C)ccc4C)CC3)nc(N)c2cc1OC | 6.91 µM
55 | CCOC(=O)c1cnc(-n2nc(C)cc2C)nc1NC(C)c1ccccc1 (stereo not drawn) | 13.7 µM
56 | Cc1cc(C)c2c(ccc3cccc[n+]32)c1 | 6.45 µM
57 | O=C(N/N=C/c1cnc(N2CCCCC2)s1)c1ccc(C(F)(F)F)cc1 | 6.66 µM
58 | Cc1ccc(-c2cc(-c3ccccc3)cc(-c3ccccc3)[n+]2-c2ccccc2)cc1 | 2.08 µM
59 | CC(C)(C)c1ccc(-n2ncc3c2CCCC3NC(=O)C2(C(N)=O)CC2)cc1 (stereo not drawn) | 6.85 µM
60 | Cc1ccccc1N1CCN(Cc2c[nH]c3ccccc23)CC1 | 7.37 µM
61 | O=C(Nc1cccnc1)c1cccnc1 | 10.9 µM
62 | O=C(Nc1cc(S(=O)(=O)N2CCCCC2)ccc1Cl)c1ccccc1NS(=O)(=O)c1ccc(F)cc1 | 3.66 µM
63 | COc1cc(OC)c2cc(C(=O)N/N=C/c3ccccc3O)[nH]c2c1 | 8.48 µM
64 | COc1cccc(/C=N/Nc2ccc([N+](=O)[O-])cn2)c1O | 7.78 µM
65 | COc1ccc(-c2cc(-c3nc4ccccn4c3NCc3ccccc3)ccc2OC)cc1 | 0.992 µM
66 | CCN(CC)c1ccc(CNc2nc3ccccc3n2CCN2CCCCC2)cc1 | 7.26 µM

Row | Structure (SMILES) | AC50
67 | FC(F)Sc1ccc(N=C2NN=C(c3ccc4c(c3)OCCO4)CS2)cc1 | 2.9 µM
68 | COc1ccc(/C=N/Nc2cc(C)nc3ccc(OC)cc23)c(OC)c1 | 13.5 µM
69 | OCCNc1nc(Nc2ccc(Cl)c(Cl)c2)nc2ccccc12 | 14.3 µM
70 | Cc1ccc(C(C)C)c(OCc2nn(CC(=O)c3ccc(Cl)cc3)c3[n+]2CCCCC3)c1 | 4.55 µM
71 | S=C(c1cn(CCOc2cccc3ccccc23)c2ccccc12)N1CCCC1 | 7.48 µM
72 | Cc1cccc(/C=N/NC(=O)c2ccc3c(c2)OCCO3)c1O | 7.38 µM
73 | O=C(NCc1ccccc1)C1=C[C@@H](c2csc3ccccc23)C[C@@H](OCCCCO)O1 | 2.67 µM
74 | CCc1ccc(Nc2n[n+](-c3ccccc3)c(-c3c(Cl)cccc3Cl)s2)cc1 | 4.08 µM
75 | Cc1ccc(C2=CC(c3ccc(N(C)C)cc3)n3nnnc3N2)cc1 (stereo not drawn) | 6.72 µM
76 | Cc1ccc(/C=N/NC(=O)c2c(-c3ccccc3)noc2C)c(O)c1 | 7.91 µM
77 | O=C(Nc1cc(Sc2ccccn2)cc([N+](=O)[O-])c1)c1cccc(F)c1 | 8.51 µM
78 | Cc1ccc2c(c1)S/C(=C/c1ccc[n+](CCO)c1)N2C | 3 µM
79 | COc1ccc(-n2c(CNc3ccc(C)cc3)nnc2SCC(=O)Nc2nc(-c3ccccc3)cs2)cc1 | 12.7 µM
80 | Cc1nc(Nc2ccc(Cl)c(Cl)c2)sc1C(=O)Nc1ccccc1 | 9.24 µM
81 | Cc1c(C(=O)Nc2nc(-c3ccccn3)cs2)oc2ccccc12 | 17.4 µM
82 | COc1ccc(/C=C/C(=O)c2ccc([N+](=O)[O-])o2)cc1 | 12.5 µM
83 | CN1CCN(C(c2ccc(C(F)(F)F)cc2)c2cc(Cl)c3cccnc3c2O)CC1 (stereo not drawn) | 6.69 µM
84 | Nc1nonc1-n1nnc(C(=O)N/N=C/c2cc(Br)ccc2O)c1CNc1ccccc1 | 8.29 µM
85 | CCN1/C(=C\C=C\C2=[N+](CC)c3ccccc3C2(C)C)C(C)(C)c2ccccc21 | < 0.195 µM
86 | Cc1ccc(NC2=CC(=O)C(=O)c3ccccc32)c(C)c1 | 4.39 µM
87 | C=C(C(=O)c1ccccc1)C(C)C(=C)C(=O)c1ccccc1 | 7.84 µM
88 | CCOC(=O)c1cccc(-[n+]2c(-c3ccccc3)cc(-c3ccccc3)cc2-c2ccccc2)c1 | 3.59 µM

Row | Structure (SMILES) | AC50
89 | CC1=NNC(=O)/C1=C\c1cn(-c2ccccc2)nc1-c1ccccc1 | 7.57 µM
90 | Cc1ccc(C(=O)NC2CCCc3c2cnn3-c2ccc(F)cc2F)cn1 (stereo not drawn) | 7.07 µM
91 | COc1cnc(-c2ccccn2)nc1Sc1ccccc1Cl | 23.1 µM
92 | COc1ccc(-c2sc3ccccc3c2-c2ccc(OCCN(C)C)cc2)cc1 | 7.12 µM
93 | Cc1cc(C(=O)NC2CCCc3c2cnn3-c2cccc(C)c2C)n(C)n1 (stereo not drawn) | 0.342 µM
94 | Cn1c(NN=O)nc2ccccc21 | 4.08 µM
95 | O=[N+]([O-])c1ccc(O)c(/C=N/Nc2ccccn2)c1 | 1.84 µM
96 | Cc1cc(N2CCCC2=O)cc(C)c1S(=O)(=O)NCCOc1ccc(C(C)(C)C)cc1 | 3 µM
97 | Cc1cc(N2CCN(S(=O)(=O)c3ccc(Cl)cc3)CC2)c2ccccc2n1 | 7.4 µM
98 | CCCCOc1ccc(C(=O)NNC(=S)NC(=O)CC)cc1 | 14.3 µM
99 | CCN(CC)S(=O)(=O)c1cccc(NC(=O)Nc2cccc(C(F)(F)F)c2)c1 | 7.13 µM
100 | NCCCn1c(C(=O)c2cc(Cl)c(N)c(Cl)c2)c2ccc([N+](=O)[O-])cc2[n+]1[O-] | 5.34 µM
101 | O=S(=O)(Nc1cc(Sc2cccc3cccnc23)c(O)c2ccccc12)c1ccc(F)cc1 | 3.9 µM
102 | O=C(COc1ccccc1-c1ccccc1)N/N=C/c1ccc2ccccc2c1 | 8.67 µM
103 | COc1ccc(N=C2S/C(=C\c3ccc(N4CCOCC4)o3)C(=O)N2CCc2c[nH]c3ccccc23)cc1 | 13.8 µM
104 | CCN1CCN(C2=C(NS(=O)(=O)c3ccccc3)C(=O)c3ccccc3C2=O)CC1 | 20.3 µM
105 | Cc1sc2ncnc(N3CCN(CCOc4ccc(Cl)cc4)CC3)c2c1C | 4.74 µM
106 | CCn1nc(C)c(CNC(=O)c2ccc(OC3CCN(Cc4ccccn4)CC3)cc2)c1C | 6.9 µM
107 | CC(=O)N1CCCc2cc(S(=O)(=O)N3CCCC(C(=O)N4CCN(c5cccc(Cl)c5)CC4)C3)ccc21 (stereo not drawn) | 7.05 µM
108 | CC(=O)NC(c1cccs1)c1cc([N+](=O)[O-])c2cccnc2c1O (stereo not drawn) | 10.9 µM
